The record followed here is patent US8299096B2, “Method for treating pulmonary diseases using rho kinase inhibitor compounds” (priority 2008, dated 2012).

Data set [1] is described as follows: Compound plasma concentrations in mice at 15 min post administration. In kind it is in vivo, mouse. Conditions: mouse; mice, plasma, 15 min post administration (oral dosing), mean of n = 3 mice; read-out: Plasma Mean Concentration.
Procedure: Additionally, compound concentrations were determined in the plasma and lungs of male, ovalbumin-sensitized, Balb/c mice from a murine model of asthma. Test compounds were formulated in water or 1% polysorbate 80 and dosed at 15 μmol/kg for intraperitoneal (IP) or oral (PO) administration or formulated for intratracheal (IT) administration and dosed at 5 μmol/kg, which directly targets the lungs. Following completion of the in vivo study, mice were euthanized and blood and plasma collected approximately 2.5-3 hours post administration of test compound for bronchodialator (BD) studies and 24 hours post administration for anti-inflamatory (AI) studies. Lungs were homogenized in Matrix A lysing tubes using a FastPrep 24 tissue and cell homogenizer (MP Biomedicals, Solon, Ohio). Both plasma samples and lung extracts were assayed for compound concentrations using an on-line, solid phase extraction LC/MS/MS system.
For data set [2], the system named is ovalbumin-sensitized mice. Description: Prevention of airway hyperreactivity development, anti-inflammatory dosing paradigm (Penh). It is filed as in vivo, mouse. Conditions: anti-inflammatory dosing paradigm.

Consider `C=Cc1ccc(CN2CCC[C@H](Nc3ccc4[nH]ncc4c3)C2)cc1` [Compound 1.229], for which, in data set [1], the concentration at 15 min came to 1450 nM.
For the molecule `Cc1cccc(CN2CCC[C@@H](Nc3ccc4[nH]ncc4c3)C2)c1C` [Compound 1.172], the concentration at 15 min in data set [1] is 111 nM.
`Fc1ccc(CN2CCC[C@@H](Nc3ccc4[nH]ncc4c3)C2)cc1` [Compound 1.146]: the concentration at 15 min in data set [1] came to 1260 nM.
On the same count and under the same terms, the figure for `c1cc(C2CC2)ccc1CN1CCC[C@H](Nc2ccc3[nH]ncc3c2)C1` [Compound 1.185] is 1020 nM; for `O=C(COc1cccc(CN2CCC[C@@H](Nc3ccc4[nH]ncc4c3)C2)c1)N1CCOCC1` [Compound 1.127] it is 980 nM.
With `c1cc(CN2CCC[C@@H](Nc3ccc4[nH]ncc4c3)C2)cc(C2CC2)c1` [Compound 1.202], the concentration at 15 min in data set [1] turned out to be 130 nM.
As for `c1cc2cc(CN3CCC[C@@H](Nc4ccc5[nH]ncc5c4)C3)ccc2[nH]1` [Compound 1.143], the concentration at 15 min in data set [1] was determined as 274 nM.
Same read-out and setting: the figure for `c1cc2c(cc1CN1CCC[C@@H](Nc3ccc4[nH]ncc4c3)C1)CCO2` [Compound 1.246] is 587 nM; for `OCCOc1cccc(CN2CCC[C@@H](Nc3ccc4[nH]ncc4c3)C2)c1` [Compound 1.092] it is 314 nM.
On to `Fc1ccc(CN2CCC[C@H](Nc3ccc4[nH]ncc4c3)C2)cc1F` [Compound 1.072], for which the concentration at 15 min in data set [1] came to 1770 nM.
Still for that read-out and setting: next, `NC(=O)Cn1ccc2ccc(CN3CCC[C@@H](Nc4ccc5[nH]ncc5c4)C3)cc21` [Compound 1.106]: 441 nM.
Same read-out and setting: next, `Clc1cccc(CN2CCC[C@@H](Nc3ccc4[nH]ncc4c3)C2)c1` [Compound 1.191]: 260 nM.
On the same count and under the same terms, next, `Cc1ccc(CN2CC[C@@H](Nc3ccc4[nH]ncc4c3)C2)cc1` [Compound 1.242]: 580 nM; `c1ccc(CN2CCC[C@@H](Nc3ccc4[nH]ncc4c3)C2)cc1` [Compound 1.110]: 792 nM; `c1cc(N[C@@H]2CCN(Cc3ccc4c(c3)OCCO4)C2)c2ccncc2c1` [Compound 2.056]: 1260 nM.
For the molecule `CCOc1cccc(CN2CCC[C@@H](Nc3ccc4[nH]ncc4c3)C2)c1` [Compound 1.203], the concentration at 15 min in data set [1] turned out to be 1130 nM.
Same read-out and setting: next, `Oc1cccc(CN2CCC[C@@H](Nc3ccc4[nH]ncc4c3)C2)c1` [Compound 1.145]: 109 nM.
Turning to `Fc1ccc(CN2CC[C@@H](Nc3cccc4cnccc34)C2)cc1F` [Compound 2.062], the concentration at 15 min in data set [1] turned out to be 660 nM.
On the same count and under the same terms, next, `OCCOc1cccc(CN2CCC[C@H](Nc3cccc4cnccc34)C2)c1` [Compound 2.036]: 1340 nM; `OCCOc1cccc(CN2CCC[C@@H](Nc3cccc4cnccc34)C2)c1` [Compound 2.034]: 665 nM; `Cc1ccc(CN2CCC[C@H](Nc3ccc4[nH]ncc4c3)C2)c(C)c1` [Compound 1.155]: 32.4 nM.
The same measure, in the same setting: next, `CCSc1ccc(CN2CCC[C@H](Nc3ccc4[nH]ncc4c3)C2)cc1` [Compound 1.168]: 588 nM; `CC(=O)NCc1cccc(CN2CCC[C@@H](Nc3ccc4[nH]ncc4c3)C2)c1` [Compound 1.194]: 355 nM; `CN(c1cccc(CN2CCC[C@H](Nc3ccc4[nH]ncc4c3)C2)c1)S(C)(=O)=O` [Compound 1.198]: 643 nM.
With `Brc1ccc(CN2CCC[C@H](Nc3ccc4[nH]ncc4c3)C2)cc1` [Compound 1.142], the concentration at 15 min in data set [1] came to 330 nM.
For the molecule `Clc1ccc(CN2CC[C@@H](Nc3cccc4cnccc34)C2)cc1` [Compound 2.027], in data set [1], the concentration at 15 min turned out to be 503 nM.
The same measure, in the same setting: the figure for `Brc1cccc(CN2CCC[C@@H](Nc3ccc4[nH]ncc4c3)C2)c1` [Compound 1.210] is 286 nM; for `c1cc2c(cc1CN1CCC[C@@H](Nc3ccc4[nH]ncc4c3)C1)OCCO2` [Compound 1.177] it is 283 nM; for `c1ccc(CN2CCC[C@H](Nc3ccc4[nH]ncc4c3)C2)cc1` [Compound 1.227] it is 1860 nM.
As for `COc1ccc(CN2CC[C@@H](Nc3ccc4[nH]ncc4c3)C2)cc1` [Compound 1.245], in data set [1], the concentration at 15 min was 1520 nM.
The same measure, in the same setting: the figure for `COc1ccc(CN2CCC[C@H](Nc3ccc4[nH]ncc4c3)C2)cc1NS(C)(=O)=O` [Compound 1.234] is 240 nM; for `Cc1ccc(CN2CCC[C@H](Nc3ccc4[nH]ncc4c3)C2)cc1` [Compound 1.078] it is 1020 nM; for `Clc1cccc(CN2CCC[C@H](Nc3ccc4[nH]ncc4c3)C2)c1` [Compound 1.170] it is 639 nM.
Turning to `CC(C)(C)NCC(O)c1ccc(O)c(CO)c1` (stereo not shown) [Salbutamol, reference compound], in data set [2], the “Efficacy using the anti-inflammatory dosing paradigm” value is given as “ineffective”.
Turning to `CC(C)c1ccc(CN2CCC[C@@H](Nc3ccc4[nH]ncc4c3)C2)cc1` [Compound 1.204], the concentration at 15 min in data set [1] was found to be 549 nM.
Turning to `Cc1ccc(CN2CCC[C@H](Nc3ccc4[nH]ncc4c3)C2)cc1O` [Compound 1.151], in data set [1], the concentration at 15 min was 479 nM.
Regarding `CSc1cccc(CN2CCC[C@@H](Nc3ccc4[nH]ncc4c3)C2)c1` [Compound 1.159], in data set [1], the concentration at 15 min was found to be 250 nM.
In the case of `C=Cc1ccc(CN2CCC[C@@H](Nc3ccc4[nH]ncc4c3)C2)cc1` [Compound 1.208], in data set [1], the concentration at 15 min is 281 nM.
As to `NC(=O)Cn1ccc2ccc(CN3CCC[C@H](Nc4ccc5[nH]ncc5c4)C3)cc21` [Compound 1.107], the concentration at 15 min in data set [1] was determined as 211 nM.
In the case of `OCc1ccc(CN2CCC[C@H](Nc3ccc4[nH]ncc4c3)C2)cc1` [Compound 1.223], the concentration at 15 min in data set [1] came out at 12.8 nM.
On the same count and under the same terms, the figure for `Brc1cccc(CN2CCC[C@H](Nc3ccc4[nH]ncc4c3)C2)c1` [Compound 1.183] is 708 nM.
As to `O=C(COc1cccc(CN2CC[C@@H](Nc3cccc4cnccc34)C2)c1)N1CCOCC1` [Compound 2.043], in data set [1], the concentration at 15 min was found to be 60.8 nM.
Regarding `CC(=O)NCc1cccc(CN2CC[C@@H](Nc3cccc4cnccc34)C2)c1` [Compound 2.063], the concentration at 15 min in data set [1] came to 348 nM.
Regarding `COc1ccc(CN2CCC[C@@H](Nc3ccc4[nH]ncc4c3)C2)cc1` [Compound 1.226], in data set [1], the concentration at 15 min was 526 nM.
Same read-out and setting: next, `OCCOc1cccc(CN2CCC[C@H](Nc3ccc4[nH]ncc4c3)C2)c1` [Compound 1.090]: 5.9 nM; `CS(=O)(=O)c1cccc(CN2CCC[C@H](Nc3ccc4[nH]ncc4c3)C2)c1` [Compound 1.182]: 452 nM.
